Where “and” joins values, the source holds several entries; their conditions need not be identical. Equal entries are not always repeated. Toxic doses and inconclusive results are not listed.
System: L1210 leukemia ip in BDF1 mice, survival T/C
Assay: NCI In Vivo Anticancer Drug Screen. Data for tumor model L1210 Leukemia (intraperitoneal) in B6D2F1 (BDF1) mice
Details: endpoint: mean survival time, higher = longer survival
Procedure, shortened: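 Read-out is survival time, reported as the treated-group measurement over the vehicle-control measurement.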

[1] = dose: 100.0 mg/kg/injection, schedule: Q04DX003 (ip), vehicle: saline with Tween-80
[2] = dose: 200.0 mg/kg/injection, schedule: Q04DX003 (ip), vehicle: saline with Tween-80
[3] = dose: 400.0 mg/kg/injection, schedule: Q04DX003 (ip), vehicle: saline with Tween-80
[4] = dose: 100.0 mg/kg/injection, schedule: Q04DX002 (ip), vehicle: Klucel (hydroxypropylcellulose) (HPC)
[5] = dose: 200.0 mg/kg/injection, schedule: Q04DX002 (ip), vehicle: Klucel (hydroxypropylcellulose) (HPC)
[6] = dose: 400.0 mg/kg/injection, schedule: Q04DX002 (ip), vehicle: Klucel (hydroxypropylcellulose) (HPC)
[7] = dose: 100.0 mg/kg/injection, schedule: Q01DX009 (ip), vehicle: saline with Tween-80
[8] = dose: 200.0 mg/kg/injection, schedule: Q01DX009 (ip), vehicle: saline with Tween-80
[9] = dose: 400.0 mg/kg/injection, schedule: Q01DX009 (ip), vehicle: saline with Tween-80
[10] = dose: 100.0 mg/kg/injection, schedule: Q04DX003 (ip), vehicle: saline
[11] = dose: 200.0 mg/kg/injection, schedule: Q04DX003 (ip), vehicle: saline
[12] = dose: 400.0 mg/kg/injection, schedule: Q04DX003 (ip), vehicle: saline
[13] = dose: 100.0 mg/kg/injection, schedule: Q01DX009 (ip), vehicle: Klucel (hydroxypropylcellulose) (HPC)
[14] = dose: 100.0 mg/kg/injection, schedule: Q04DX003 (ip), vehicle: Klucel (hydroxypropylcellulose) (HPC)
[15] = dose: 200.0 mg/kg/injection, schedule: Q01DX009 (ip), vehicle: Klucel (hydroxypropylcellulose) (HPC)
[16] = dose: 400.0 mg/kg/injection, schedule: Q04DX003 (ip), vehicle: Klucel (hydroxypropylcellulose) (HPC)
[17] = dose: 200.0 mg/kg/injection, schedule: Q04DX003 (ip), vehicle: Klucel (hydroxypropylcellulose) (HPC)
[18] = dose: 100.0 mg/kg/injection, schedule: Q01DX001 (ip), vehicle: Klucel (hydroxypropylcellulose) (HPC)
[19] = dose: 200.0 mg/kg/injection, schedule: Q01DX001 (ip), vehicle: Klucel (hydroxypropylcellulose) (HPC)
[20] = dose: 100.0 mg/kg/injection, schedule: Q01DX001 (ip), vehicle: carboxymethylcellulose (CMC)
[21] = dose: 200.0 mg/kg/injection, schedule: Q01DX001 (ip), vehicle: carboxymethylcellulose (CMC)
[22] = dose: 400.0 mg/kg/injection, schedule: Q01DX001 (ip), vehicle: carboxymethylcellulose (CMC)
[23] = dose: 100.0 mg/kg/injection, schedule: Q04DX002 (ip), vehicle: saline

`[O]=[Sb]([OH])([c]1ccccc1)[c]1ccccc1` was tested, and the T/C (dose: 10.0 mg/kg/injection, schedule: Q01DX001 (ip), vehicle: saline) was 87 % of control and the T/C (dose: 20.0 mg/kg/injection, schedule: Q01DX001 (ip), vehicle: saline) was 91 % of control.

For `O=C(O)c1cc(O)[nH]c(=O)c1`, the T/C [1] was 102 % of control, the T/C [2] was 91 % of control and the T/C [3] was 94 % of control.

In the case of `CC1(C)CCC(N)CC1`, the T/C (dose: 75.0 mg/kg/injection, schedule: Q01DX001 (ip), vehicle: saline) is reported as 93 % of control and the T/C (dose: 150.0 mg/kg/injection, schedule: Q01DX001 (ip), vehicle: saline) is reported as 95 % of control.

`O=C(Nc1ccc(Cl)cc1)Oc1ccc(C2CCCCC2)cc1` was tested, and the T/C [4] was 100 % of control, the T/C [5] was 107 % of control and the T/C [6] was 110 % of control.

`CC1(C)C(c2ccccc2)=NN=C1c1ccccc1` was tested, and the T/C [7] was 93 % of control, the T/C [1] was 90 % of control and the T/C [8] was 91 % of control. For the same compound, the T/C [2] was 104 % of control, the T/C [9] was 112 % of control and the T/C [3] was 104 % of control.

In the case of `CN=C1N[N+]2=C(C)CSCC2(C)S1` (stereo unspecified), the T/C [10] is reported as 98 % of control, the T/C [11] is reported as 98 % of control and the T/C [12] is reported as 89 % of control.

In the case of `Cc1cc(=O)cc(C)n1C`, the T/C [7] is reported as 96 % of control, the T/C [8] is reported as 100 % of control and the T/C [9] is reported as 92 % of control.

`O=C1OC(=O)C2C3C=CC(C3=C(c3ccccc3)c3ccccc3)C12` (stereo unspecified) was tested, and the T/C [13] was 92 % of control, the T/C [7] was 97 % of control and the T/C [14] was 92 % of control. The T/C [15] was 97 % of control, the T/C [8] was 100 % of control and the T/C [2] was 90 % of control. For the same compound, the T/C [16] was 87 % of control and the T/C [3] was 92 % of control.

`O=C(NCc1ccccc1)Nc1ccccc1` was tested, and the T/C [14] was 96 % of control, the T/C [17] was 100 % of control and the T/C [16] was 96 % of control.

In the case of `O=C(Nc1ncccc1[N+](=O)[O-])C(Cl)(Cl)Cl`, the T/C [18] is reported as 101 % of control, the T/C [13] is reported as 115 % of control and the T/C [4] is reported as 100 % of control and 88 % of control. The T/C [14] was 95 % of control, the T/C [19] was 100 % of control and the T/C [15] was 108 % of control. For the same compound, the T/C [5] was 103 % of control and 91 % of control, the T/C [17] was 106 % of control and the T/C (dose: 400.0 mg/kg/injection, schedule: Q01DX001 (ip), vehicle: Klucel (hydroxypropylcellulose) (HPC)) was 101 % of control. For the same compound, the T/C [6] was 100 % of control and 103 % of control and the T/C [16] was 95 % of control.

`CCOC(=O)NP(NC(=O)NOC)NC(=O)OCC` was tested, and the T/C [20] was 101 % of control, the T/C [21] was 93 % of control and the T/C [22] was 101 % of control.

In the case of `Cc1cc([NH-])c([NH-])cc1C.[Cl][Pt+2][Cl]`, the T/C (dose: 18.0 mg/kg/injection, schedule: Q01DX009 (ip), vehicle: water) is reported as 150 % of control, the T/C (dose: 25.0 mg/kg/injection, schedule: Q01DX009 (ip), vehicle: other) is reported as 119 % of control and the T/C (dose: 50.0 mg/kg/injection, schedule: Q04DX003 (ip), vehicle: other) is reported as 104 % of control. For the same compound, the T/C (dose: 50.0 mg/kg/injection, schedule: Q04DX003 (ip), vehicle: saline) was 112 % of control and 119 % of control, the T/C (dose: 100.0 mg/kg/injection, schedule: Q04DX003 (ip), vehicle: other) was 119 % of control and the T/C [10] was 107 % of control and 113 % of control. The T/C [11] was 93 % of control.

For `Clc1ccc(/C=C\c2ccncc2)cc1`, the T/C (dose: 50.0 mg/kg/injection, schedule: Q01DX001 (ip), vehicle: carboxymethylcellulose (CMC)) was 102 % of control, the T/C [20] was 98 % of control and the T/C [21] was 119 % of control. The T/C [22] was 98 % of control.

For `O=S(=O)(Nc1ccc(O)c(Cl)c1)c1ccccc1`, the T/C [7] was 100 % of control, the T/C [8] was 103 % of control and the T/C [9] was 95 % of control.

With `NCC1OC(n2ccc(=O)[nH]c2=O)CC1O` (stereo unspecified) the T/C (dose: 25.0 mg/kg/injection, schedule: Q04DX002 (ip), vehicle: saline) was 93 % of control, the T/C (dose: 50.0 mg/kg/injection, schedule: Q04DX002 (ip), vehicle: saline) was 101 % of control and the T/C [23] was 108 % of control.

`Cc1ccccc1-n1c(C)cc(C(=O)O)c1C` was tested, and the T/C [13] was 110 % of control, the T/C [14] was 102 % of control and the T/C [15] was 93 % of control. For the same compound, the T/C [17] was 106 % of control, the T/C (dose: 400.0 mg/kg/injection, schedule: Q01DX009 (ip), vehicle: Klucel (hydroxypropylcellulose) (HPC)) was 98 % of control and the T/C [16] was 88 % of control.

For `c1cc[c]([Pb]([c]2ccccc2)([c]2ccccc2)[n]2ccc3ccccc32)cc1`, the T/C (dose: 1.0 mg/kg/injection, schedule: Q04DX003 (ip), vehicle: saline with Tween-80) was 113 % of control, the T/C (dose: 1.56 mg/kg/injection, schedule: Q01DX009 (ip), vehicle: saline with Tween-80) was 91 % of control and the T/C (dose: 2.0 mg/kg/injection, schedule: Q04DX003 (ip), vehicle: saline with Tween-80) was 90 % of control. For the same compound, the T/C (dose: 3.12 mg/kg/injection, schedule: Q01DX009 (ip), vehicle: saline with Tween-80) was 89 % of control, the T/C (dose: 4.0 mg/kg/injection, schedule: Q04DX003 (ip), vehicle: saline with Tween-80) was 101 % of control and the T/C (dose: 8.0 mg/kg/injection, schedule: Q04DX003 (ip), vehicle: saline with Tween-80) was 101 % of control.

In the case of `COC(=O)CNC(=O)C1CSC(C)(C)N1` (stereo unspecified), the T/C (dose: 100.0 mg/kg/injection, schedule: Q01DX001 (ip), vehicle: steriod suspending solution) is reported as 100 % of control, the T/C (dose: 200.0 mg/kg/injection, schedule: Q01DX001 (ip), vehicle: steriod suspending solution) is reported as 97 % of control and the T/C (dose: 400.0 mg/kg/injection, schedule: Q01DX001 (ip), vehicle: steriod suspending solution) is reported as 100 % of control.

In the case of `c1csc(-c2nc3ccccc3s2)c1`, the T/C [7] is reported as 98 % of control, the T/C [1] is reported as 101 % of control and the T/C [8] is reported as 100 % of control. The T/C [2] was 98 % of control, the T/C [9] was 94 % of control and the T/C [3] was 93 % of control.

`O=[N+]([O-])c1cccc(/C(Cl)=C/CCl)c1` was tested, and the T/C (dose: 50.0 mg/kg/injection, schedule: Q01DX001 (ip), vehicle: Klucel (hydroxypropylcellulose) (HPC)) was 98 % of control, the T/C [18] was 101 % of control and the T/C [19] was 97 % of control.

With `Cc1nc2ccccc2c(=O)n1-c1ccc(N(CCCl)CCCl)cc1` the T/C [23] was 98 % of control, the T/C (dose: 200.0 mg/kg/injection, schedule: Q04DX002 (ip), vehicle: saline) was 117 % of control and the T/C (dose: 400.0 mg/kg/injection, schedule: Q04DX002 (ip), vehicle: saline) was 103 % of control.

`COC1OC(CN2C(=O)c3ccccc3C2=O)C2OC(C)(C)OC12` (stereo unspecified) was tested, and the T/C [1] was 106 % of control, the T/C [2] was 97 % of control and the T/C [3] was 96 % of control.

With `COC(=O)c1n[nH]c(C)c1N=NN1CCC(C(N)=O)CC1` the T/C (dose: 9.38 mg/kg/injection, schedule: Q01DX001 (ip), vehicle: other) was 118 % of control, the T/C (dose: 18.75 mg/kg/injection, schedule: Q01DX001 (ip), vehicle: other) was 109 % of control and the T/C (dose: 37.5 mg/kg/injection, schedule: Q01DX001 (ip), vehicle: other) was 101 % of control.

`CN(N=O)C(=O)NCCCCNC(=O)N(C)N=O` was tested, and the T/C (dose: 6.25 mg/kg/injection, schedule: Q01DX Z (ip), vehicle: carboxymethylcellulose (CMC)) was 107 % of control, the T/C (dose: 12.5 mg/kg/injection, schedule: Q01DX Z (ip), vehicle: carboxymethylcellulose (CMC)) was 112 % of control and the T/C (dose: 25.0 mg/kg/injection, schedule: Q01DX Z (ip), vehicle: carboxymethylcellulose (CMC)) was 111 % of control. The T/C (dose: 50.0 mg/kg/injection, schedule: Q01DX Z (ip), vehicle: carboxymethylcellulose (CMC)) was 108 % of control and the T/C (dose: 200.0 mg/kg/injection, schedule: Q01DX Z (ip), vehicle: carboxymethylcellulose (CMC)) was 163 % of control.

In the case of `COC(=O)c1ccc(SCCCN2CCOCC2)cc1`, the T/C (dose: 100.0 mg/kg/injection, schedule: Q01DX009 (ip), vehicle: saline) is reported as 97 % of control, the T/C [10] is reported as 109 % of control and the T/C (dose: 200.0 mg/kg/injection, schedule: Q01DX009 (ip), vehicle: saline) is reported as 96 % of control. The T/C [11] was 96 % of control, the T/C (dose: 400.0 mg/kg/injection, schedule: Q01DX009 (ip), vehicle: saline) was 102 % of control and the T/C [12] was 100 % of control.

For `Clc1ccc(/C=C/c2cccc(/C=C/c3ccc(Cl)cc3)n2)cc1`, the T/C [14] was 96 % of control, the T/C [17] was 97 % of control and the T/C [16] was 97 % of control.

Source: PubChem BioAssay AID248 (DTP/NCI, 2004)
